Measurements taken from US10760052B2, “Method of inhibiting tau phosphorylation” (priority 2012, dated 2020).
Read-outs that look alike come from different tables or passages of the source.

Key:
α7nAChR-FLNA complex [1] = target: T1, α7nAChR-FLNA complex (Homo sapiens, UniProt P36544); type: cell-based
T1 construct: In postmortem control frontocortical tissue, Aβ42-induced FLNA recruitment to α7nAChRs was mimicked; from tissue; host or cells: postmortem frontal cortex of control subjects
Method: Incubation continued for 1 hour in the dark. […] The reaction was terminated by the addition of 1.5 ml of ice-cold Ca^2+-free K-R, and slices were collected by a brief centrifugation.
Solubilized immunoprecipitates derived from co-immunoprecipitation assays were separated by either 7.5 or 10% SDS-PAGE and then electrophoretically transferred to nitrocellulose membranes. The membranes were washed with PBS and blocked overnight (about 18 hours) at 4° C. with 10% milk in PBS with 0.1% Tween®-20 (PBST). Following three 5-minute washes with 0.1% PBST, the membranes were incubated at room temperature for 2 hours with antibody of choice at 1:500-1:1,000 dilutions. After three 2-minute washes in 0.1% PBST, membranes were incubated for 1 hour with anti-species IgG-HRP (1:5,000 dilution) and washed with 0.1% PBST three times, 2-minutes each. Immunoreactivity was visualized by reacting with chemiluminescent reagent (Pierce-ENDOGEN) for exactly 5 minutes and immediately exposing to X-ray film. Specific bands were quantified by densitometric scanning (GS-800 calibrated densitometer, Bio-Rad Laboratories).

α7nAChR-FLNA complex [2] = target: T2, α7nAChR-FLNA complex (Rattus norvegicus, UniProt A0A8I5ZV49); assay: Aβ42-induced α7nAChR-FLNA association in rat frontal cortical synaptosomes (co-immunoprecipitation/Western blot); type: cell-based; details: 1 or 10 nM compound, simultaneously or 10 minutes prior to Aβ42 (0.1 μM)
T2 construct: from tissue; host or cells: rat frontal cortex synaptosomes
Description: The α7nAChR-FLNA complexes in the solubilized synaptosomes were immunoprecipitated with immobilized anti-FLNA and the α7nAChR and FLNA levels in the anti-FLNA immunoprecipitates determined by Western blotting (FIG. 2A) and quantified by densitometry (FIG. 2B). n=3. […] The letter designation “M” that accompanies many of the “C-series” compounds is omitted from FIG. 2, the remaining figures and most discussions of the figures and compounds hereinafter for ease in expression. Structural formulas of the compounds used in this and the other figures are provided hereinafter. […]

mu opiate receptor (MOR) = target: T3, mu opiate receptor (MOR) (Rattus norvegicus, UniProt P33535); type: biochemical; details: for Concentration of FLNA-Binding Compound as Agonist 0.1 μM / Concentration of FLNA-Binding Compound as Agonist 1 μM / Concentration of FLNA-Binding Compound as Agonist 1 μM + BFNA: [35S]GTPγS binding to Gαo in striatal membranes; for Concentration of FLNA-Binding Compound as Agonist 0.1 μM: compound 0.1 μM; for Concentration of FLNA-Binding Compound as Agonist 1 μM: compound 1 μM; for Concentration of FLNA-Binding Compound as Agonist 1 μM + BFNA: compound 1 μM plus 1 μM β-funaltrexamine (MOR antagonist)
T3 construct: from tissue; host or cells: striatum (membrane preparation)

[3] = target: VAKGL pentapeptide of filamin A (FLNA) of SEQ ID NO: 1 (Homo sapiens, UniProt P21333); assay: FITC-NLX-based FLNA screening assay (inhibition of FITC-naloxone binding to Bn-VAKGL on streptavidin plates); details: 10 nM FITC-NLX
[4] = tested on: tau protein phosphorylated at S202, T231 and T181; assay: Aβ42-induced tau phosphorylation in rat frontal cortical synaptosomes; type: cell-based; details: 1 or 10 nM compound, simultaneously or 10-minute pretreatment; Aβ42 0.1 μM
Method: FIG. 4 in four panels as FIGS. 4A-4D, illustrates that FLNA-binding compounds reduce tau phosphorylation at all three phosphorylation sites. […] The three phosphoepitopes of tau were detected in immunoprecipitates using specific antibodies. […] Immunoprecipitates were determined by Western blotting (FIGS. 4A-4C) and quantified by densitometry (FIG. 4D).
(§1) FIG. 42, also in two panels, FIGS. 42A and 42B, illustrates that FLNA-binding compounds reduce tau phosphorylation at all three phosphorylation sites using the compounds and concentrations of FIG. 41 using immunoprecipitation and Western blotting. […] The three phosphoepitopes of tau were detected in immunoprecipitates using specific antibodies.
as §1, with “44,” for “42,”, “FIG. 44A” for “FIGS. 42A”, “FIG. 44B,” for “42B,”, “43” for “41”, “antibodies. Aβ42 strongly promotes tau phosphorylation at all three sites.” for “antibodies.”
as §1, with “46,” for “42,”, “FIG. 46A” for “FIGS. 42A”, “FIG. 46B,” for “42B,”, “45” for “41”, “antibodies. Aβ42 strongly promotes tau phosphorylation at all three sites.” for “antibodies.”
The three primary phosphorylation sites on tau protein were examined for their phosphorylation levels compared to total tau protein content. Tau, phosphorylated at these three sites, is a constituent of NFTs. Consistent with effects on FLNA-α7nAChR association, and ERK2 activation, all of the FLNA-binding compounds assayed, with 10 minute pre-incubation, decreased Aβ42-induced phosphorylation of tau at all three sites (FIG. 4).

T2 sequence (A0A8I5ZV49 entry or part of it, one chain of several): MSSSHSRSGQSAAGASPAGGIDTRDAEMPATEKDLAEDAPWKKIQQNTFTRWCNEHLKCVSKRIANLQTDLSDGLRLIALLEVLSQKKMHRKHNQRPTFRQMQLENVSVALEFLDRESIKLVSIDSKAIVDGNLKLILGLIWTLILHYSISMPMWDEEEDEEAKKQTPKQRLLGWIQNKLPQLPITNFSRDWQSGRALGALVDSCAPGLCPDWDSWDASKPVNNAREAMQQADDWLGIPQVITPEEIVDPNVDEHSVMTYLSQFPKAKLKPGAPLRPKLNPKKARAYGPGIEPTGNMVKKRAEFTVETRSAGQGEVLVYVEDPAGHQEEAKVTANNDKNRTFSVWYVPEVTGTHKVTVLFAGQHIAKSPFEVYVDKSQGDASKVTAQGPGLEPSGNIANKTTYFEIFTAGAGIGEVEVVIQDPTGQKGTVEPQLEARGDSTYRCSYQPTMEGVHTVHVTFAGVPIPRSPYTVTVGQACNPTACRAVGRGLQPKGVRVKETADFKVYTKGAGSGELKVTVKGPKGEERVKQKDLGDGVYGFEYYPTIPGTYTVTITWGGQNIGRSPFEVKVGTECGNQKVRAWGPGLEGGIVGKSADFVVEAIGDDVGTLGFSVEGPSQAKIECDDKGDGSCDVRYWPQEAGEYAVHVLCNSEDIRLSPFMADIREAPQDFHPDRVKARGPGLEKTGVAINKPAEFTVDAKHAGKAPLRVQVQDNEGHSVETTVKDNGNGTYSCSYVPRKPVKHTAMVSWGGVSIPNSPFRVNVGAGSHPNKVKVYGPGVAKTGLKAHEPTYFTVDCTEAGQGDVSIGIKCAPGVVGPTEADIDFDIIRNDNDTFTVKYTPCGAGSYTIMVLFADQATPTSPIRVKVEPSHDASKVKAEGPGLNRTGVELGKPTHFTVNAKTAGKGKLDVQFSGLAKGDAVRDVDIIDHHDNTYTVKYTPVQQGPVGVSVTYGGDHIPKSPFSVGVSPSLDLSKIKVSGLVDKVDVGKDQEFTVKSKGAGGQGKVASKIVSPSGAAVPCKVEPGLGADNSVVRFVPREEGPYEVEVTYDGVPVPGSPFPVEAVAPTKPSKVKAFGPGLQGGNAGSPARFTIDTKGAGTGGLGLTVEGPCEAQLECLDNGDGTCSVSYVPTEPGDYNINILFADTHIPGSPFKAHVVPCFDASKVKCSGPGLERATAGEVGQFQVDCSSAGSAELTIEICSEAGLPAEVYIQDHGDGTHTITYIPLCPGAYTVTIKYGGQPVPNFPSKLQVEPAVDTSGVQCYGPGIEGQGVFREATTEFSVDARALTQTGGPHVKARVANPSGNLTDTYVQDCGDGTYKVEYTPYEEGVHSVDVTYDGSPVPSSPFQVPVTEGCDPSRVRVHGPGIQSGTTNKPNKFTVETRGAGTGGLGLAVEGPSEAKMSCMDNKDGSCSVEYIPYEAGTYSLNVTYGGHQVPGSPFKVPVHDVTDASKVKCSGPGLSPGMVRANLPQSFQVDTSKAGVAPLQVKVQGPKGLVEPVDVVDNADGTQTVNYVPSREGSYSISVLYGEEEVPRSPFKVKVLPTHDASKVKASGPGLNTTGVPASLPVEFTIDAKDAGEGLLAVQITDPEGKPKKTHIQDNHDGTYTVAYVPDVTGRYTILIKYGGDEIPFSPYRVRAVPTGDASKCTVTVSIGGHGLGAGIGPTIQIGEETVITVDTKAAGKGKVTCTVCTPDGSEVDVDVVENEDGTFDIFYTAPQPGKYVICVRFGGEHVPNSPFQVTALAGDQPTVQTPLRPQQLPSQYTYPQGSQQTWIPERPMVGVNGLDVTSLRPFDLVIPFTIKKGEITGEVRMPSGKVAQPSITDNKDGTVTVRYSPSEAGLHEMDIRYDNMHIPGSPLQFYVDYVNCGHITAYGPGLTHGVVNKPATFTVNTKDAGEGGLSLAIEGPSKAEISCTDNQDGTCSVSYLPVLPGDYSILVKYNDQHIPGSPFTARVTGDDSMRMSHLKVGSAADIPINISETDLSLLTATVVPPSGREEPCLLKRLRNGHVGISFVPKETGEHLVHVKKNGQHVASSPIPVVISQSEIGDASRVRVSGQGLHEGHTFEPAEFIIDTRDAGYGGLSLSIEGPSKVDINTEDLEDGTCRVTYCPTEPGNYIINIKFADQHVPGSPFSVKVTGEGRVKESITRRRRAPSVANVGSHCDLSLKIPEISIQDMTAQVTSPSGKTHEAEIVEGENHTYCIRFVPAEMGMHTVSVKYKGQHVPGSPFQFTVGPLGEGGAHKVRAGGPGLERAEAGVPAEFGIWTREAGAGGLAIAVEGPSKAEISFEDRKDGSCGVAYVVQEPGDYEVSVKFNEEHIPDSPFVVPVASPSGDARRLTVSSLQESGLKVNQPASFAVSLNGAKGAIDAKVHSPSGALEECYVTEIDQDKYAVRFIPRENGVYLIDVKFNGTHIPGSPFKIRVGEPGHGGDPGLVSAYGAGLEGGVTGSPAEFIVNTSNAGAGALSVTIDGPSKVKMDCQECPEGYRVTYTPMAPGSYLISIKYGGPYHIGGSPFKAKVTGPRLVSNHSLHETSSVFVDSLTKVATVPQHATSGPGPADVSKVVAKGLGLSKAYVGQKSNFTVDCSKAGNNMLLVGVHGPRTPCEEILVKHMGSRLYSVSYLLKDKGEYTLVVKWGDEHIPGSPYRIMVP
T1 sequence (P36544 23-502, one chain of several): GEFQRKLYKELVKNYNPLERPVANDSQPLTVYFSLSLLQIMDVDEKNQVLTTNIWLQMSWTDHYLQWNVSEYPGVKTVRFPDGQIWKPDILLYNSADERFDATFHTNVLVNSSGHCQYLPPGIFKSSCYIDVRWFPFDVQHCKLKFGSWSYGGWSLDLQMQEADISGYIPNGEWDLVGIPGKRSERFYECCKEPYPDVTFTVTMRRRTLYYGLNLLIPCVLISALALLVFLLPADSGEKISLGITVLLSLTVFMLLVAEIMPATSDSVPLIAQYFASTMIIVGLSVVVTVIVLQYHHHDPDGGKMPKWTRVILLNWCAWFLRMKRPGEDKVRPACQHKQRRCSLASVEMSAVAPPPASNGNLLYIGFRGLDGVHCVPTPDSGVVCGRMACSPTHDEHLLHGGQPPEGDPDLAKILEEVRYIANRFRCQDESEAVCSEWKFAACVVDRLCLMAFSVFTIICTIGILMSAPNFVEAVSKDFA
T3 sequence (P33535 whole entry): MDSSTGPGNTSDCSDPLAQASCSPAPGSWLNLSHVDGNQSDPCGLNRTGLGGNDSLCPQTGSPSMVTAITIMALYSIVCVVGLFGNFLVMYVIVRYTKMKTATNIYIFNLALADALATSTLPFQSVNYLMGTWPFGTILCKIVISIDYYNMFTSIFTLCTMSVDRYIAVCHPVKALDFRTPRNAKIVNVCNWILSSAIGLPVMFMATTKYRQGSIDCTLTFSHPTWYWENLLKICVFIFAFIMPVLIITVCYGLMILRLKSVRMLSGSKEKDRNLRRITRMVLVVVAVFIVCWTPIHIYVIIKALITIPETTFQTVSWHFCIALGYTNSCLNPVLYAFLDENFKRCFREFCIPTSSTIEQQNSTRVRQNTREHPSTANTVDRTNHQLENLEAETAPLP

Row | SMILES | α7nAChR-FLNA association (ratio α7nAChR/FLNA) (α7nAChR-FLNA complex [2]) | % DAMGO (0.1 μM) (mu opiate receptor (MOR)) [%] | % DAMGO (1 μM) (mu opiate receptor (MOR)) [%] | % DAMGO + BFNA (mu opiate receptor (MOR)) [%] | Concentration of FLNA-Binding Compound as Agonist 0.1 μM (mu opiate receptor (MOR)) [%] | Concentration of FLNA-Binding Compound as Agonist 1 μM (mu opiate receptor (MOR)) [%] | Concentration of FLNA-Binding Compound as Agonist 1 μM + BFNA (mu opiate receptor (MOR)) [%] | Percent Binding Inhibition (FITC-NLX binding) ([3]; 0.01 μM FLNA-binding compound) [%] | Percent Binding Inhibition (FITC-NLX binding) ([3]; 0.1 μM FLNA-binding compound) [%] | Percent Binding Inhibition (FITC-NLX binding) ([3]; 1 μM FLNA-binding compound) [%] | other results
1 | CC12CC3CC(C)(C1)CC(N)(C3)C2 [Memantine, memantine] | – | – | – | – | – | – | – | – | – | – | FLNA/α7nAChR ratio (stimulation vs vehicle, %) (α7nAChR-FLNA complex [1]; 1 μM agent): (225.9 ± 38.5) %; FLNA/α7nAChR ratio (α7nAChR-FLNA complex [1]; 1 μM agent, postmortem control frontocortical tissue): 0.21 ± 0.03; Aβ42 effect, % (α7nAChR-FLNA complex [1]; 1 μM agent, relative to 0.1 μM Aβ42): 23.0 ± 3.9%; FLNA recruitment to α7nAChRs (in words) (α7nAChR-FLNA complex [1]; postmortem control frontocortical tissue): elicited the recruitment of FLNA to α7nAChRs
2 | O=C1CNC2(CCN(C(=S)Nc3cccnc3)CC2)N1Cc1ccccc1 [Compound B] | statistically different from Aβ42 alone | – | – | – | – | – | – | – | – | – | –
3 | COc1c2c(cc3c1C(CC(=O)c1ccc(F)c(F)c1)[N+](C)(C)CC3)OCO2 (centres unmarked) [Compound B0003] | – | 59.9 | 47.4 | 29.0 | 103.0 | 131.1 | 18.6 | 45.4 | 52.9 | 63.5 | –
4 | CN1CCCC1c1cccnc1 (centres unmarked) [Nicotine, nicotine] | – | – | – | – | – | – | – | – | – | – | Aβ42 effect, % (α7nAChR-FLNA complex [1]): 11.0 ± 3.2%; FLNA/α7nAChR ratio (α7nAChR-FLNA complex [1]): 0.13 ± 0.02; FLNA/α7nAChR ratio (stimulation vs vehicle, %) (α7nAChR-FLNA complex [1]): (107.7 ± 31.4) %
5 | O=C1CNC2(CCN(CC3CC3)CC2)N1Cc1ccccc1 [Compound C0124] | reduce α7nAChR-FLNA association | – | – | – | – | – | – | – | – | – | Aβ42-induced tau phosphorylation at S202, T231 and T181 [4]: reduced this phosphorylation at both concentrations
6 | CC1CCC(C(C)C)C(OCC(O)CN2CCc3ccccc32)C1 (centres unmarked) [Compound A0065] | – | 126.6 | 115.7 | 112.5 | 197.6 | 266.8 | 44.9 | 38.7 | 50.0 | 50.8 | –
7 | O=C(Nc1ccccc1)N1CCC2(CC1)NCC(=O)N2Cc1ccccc1 [Compound C] | statistically different from Aβ42 alone | – | – | – | – | – | – | – | – | – | Aβ42-induced tau phosphorylation at S202, T231 and T181 [4]: did not provide a statistically significant result at two phosphorylation positions when simultaneously administered
8 | COc1c2c(cc3c1C(CC(O)Cc1ccccc1C)N(C)CC3)OCO2 (centres unmarked) [Compound B0054] | – | 93.4 | 85.3 | 668.7 | 157.8 | 186.7 | 111.0 | 25.6 | 32.6 | 43.3 | –
9 | CC(=O)c1ccc(S(=O)(=O)N2CC(CN(C)C)OC23CCN(C)CC3)cc1 (centres unmarked) [Compound C0108] | reduce α7nAChR-FLNA association | – | – | – | – | – | – | – | – | – | –
10 | CCN1C[C@]2(COC(=O)c3ccccc3N3C(=O)C[C@H](C)C3=O)CC[C@H](OC)[C@@]34[C@@H]5C[C@H]6[C@H](OC)[C@@H]5[C@](O)(C[C@@H]6OC)[C@@](O)([C@@H](OC)[C@H]23)[C@@H]14 [Methyllycaconitine, methyllycaconitine] | – | – | – | – | – | – | – | – | – | – | Aβ42 effect, % (α7nAChR-FLNA complex [1]): 2.0 ± 1.2%; FLNA recruitment to α7nAChRs (in words) (α7nAChR-FLNA complex [1]): showed no effect; FLNA/α7nAChR ratio (α7nAChR-FLNA complex [1]): 0.08 ± 0.02; FLNA/α7nAChR ratio (stimulation vs vehicle, %) (α7nAChR-FLNA complex [1]): (19.8 ± 12.2) %
